Measured values published in patent publication US5342980A, “Fungicidal agents” (American Cyanamid Company, priority 1992, dated 1994).

How the values were obtained:
Rhizoctonia solani [1] = assay: Control of soil borne diseases, Cucumber damping-off by Rhizoctonia (CURS); format: in vivo; conditions: 14-18 days after treatment; further: ranges in brackets are in %
Procedure: (§1) Pasturized soil (100 mL) is added to 6 cm diameter plastic cups without drainage holes and covered with pathogen contaminated soil (30 mL). Ten germinated cucumber seeds are planted on the contaminated soil and the seeds are covered with pasteurized soil (20 mL). Test compounds are dissolved in acetone, diluted with deionized water containing about 0.05% TWEEN 20®, and applied to the pots by drenching the soil surface with 15 mL of test solution. The pots are placed in a greenhouse for disease development. The pots are watered lightly until plants emerge from the soil surface. Disease evaluations are made 14-18 days after treatment according to the rating scale shown below.

[2] = system: Puccinia recondita f. sp. tritici; assay: In vivo fungicidal evaluation, Wheat Leaf Rust (WLR); conditions: 200 ppm, plants sprayed before inoculation
Pythium aphanidermantum = assay: Control of soil borne diseases, Cucumber damping-off by Pythium (CUPA); format: in vivo; conditions: 14-18 days after treatment; further: ranges in brackets are in %
Procedure: as §1

[3] = system: Erysiphe graminis f. sp. tritici; assay: In vivo fungicidal evaluation, Wheat Powdery Mildew (WPM); conditions: 200 ppm, plants sprayed before inoculation
Plasmopara viticola = assay: In vivo fungicidal evaluation, Grape Downy Mildew (GDM); conditions: 200 ppm, plants sprayed before inoculation
[4] = system: Fusarium oxysporum f. sp. cucumerinum; assay: In vitro fungicidal evaluation, growth inhibition (FUSOXC); format: cell-based; set-up: scale not given here; conditions: 25 ppm, 3-4 days at 21° C.
Procedure: (§2) Test compounds are dissolved in acetone and dispersed into cell well plates containing a suspension of ground fungal mycelia in a nutrient broth. Assay plates are incubated for 3-4 days at 21° C. Growth inhibition is measured visually and is rated using the following scale:
(§3) Untreated controls, solvent blanks and reference standards are included in each test.
(§4) Assay fungi include the plant pathogens, Pythium ultimum (Pythul); Rhizoctonia solani (Rhizso); Fusarium oxysporum f. sp. cucumerinum (Fusoxc); and Pseudocercosporella herpotrichoides (Psdche).
(§5) When more than one test is run, the data are averaged.

Pyricularia oryzae = format: in vivo; conditions: 200 ppm, plants sprayed before inoculation
[5] = system: Fusarium oxysporium f. sp. cucumerinum; assay: Control of soil borne diseases, Cucumber Fusarium Wilt (CUFO); format: in vivo; conditions: 14-18 days after treatment; further: ranges in brackets are in %
Procedure: as §1

Alternaria solani = assay: In vivo fungicidal evaluation, Tomato Early Blight (TEB); conditions: 200 ppm, plants sprayed before inoculation
[6] = system: Pseudocercosporella herpotrichoides; assay: In vitro fungicidal evaluation, growth inhibition (PSDCHE); format: cell-based; set-up: scale not given here; conditions: 25 ppm, 3-4 days at 21° C.
Procedure: as §2, §3, §4, §5

Pythium ultimum = assay: In vitro fungicidal evaluation, growth inhibition (PYTHUL); format: cell-based; set-up: scale not given here; conditions: 25 ppm, 3-4 days at 21° C.
Procedure: as §2, §3, §4, §5

Cercospora beticola = assay: In vivo fungicidal evaluation, Sugar Beet Cercospora (SBC); conditions: plants sprayed before inoculation
Botrytis cinerea = assay: In vivo fungicidal evaluation, Pepper Botrytis (PB); conditions: 200 ppm, plants sprayed before inoculation
Venturia inaequalis = assay: In vivo fungicidal evaluation, Apple Scab (AS); conditions: 200 ppm, plants sprayed before inoculation
Rhizoctonia solani [7] = assay: In vitro fungicidal evaluation, growth inhibition (RHIZSO); format: cell-based; set-up: scale not given here; conditions: 25 ppm, 3-4 days at 21° C.
Procedure: as §2, §3, §4, §5

Rhizoctonia solani [8] = assay: In vivo fungicidal evaluation, Rice Sheath Blight (RSB); conditions: 400 ppm, plants sprayed before inoculation
Mycosphaerella fijiensis = assay: Control of banana black sigatoka on banana seedlings; format: in vivo; conditions: 200 ppm, leaves sprayed to run-off; 28 to 40 days post inoculation
Procedure: Test compounds are dissolved in acetone and diluted with distilled water containing about 0.05% TWEEN 20® to give a concentration of 200 ppm. Banana seedlings at the 6-7 leaf stage are sprayed with test solution on the upper and lower surfaces of the 3 youngest, unfurled leaves to the point of run-off, dried and inoculated with a spore suspension of Mycosphaerella fijiensis. The inoculated banana seedlings are placed outdoors in a plastic tunnel lined with wet jute sacks. The temperature is maintained between about 25° and 32° C. and the relative humidity is maintained between about 85% and 100%. After five days, the banana seedlings are transferred to a partially shaded screenhouse, surrounded with wet jute sacks and misted daily. When disease symptom development is optimal, typically 28 to 40 days post inoculation, the banana seedlings are rated for disease control according to the rating scale shown below. Each test contains inoculated treated plants, inoculated untreated plants and a reference standard. When more than one test is run, the data are averaged.

Compound	disease control rating, CURS (Rhizoctonia solani [1]; 2.5 kg/ha soil drench)	disease control rating, CURS (Rhizoctonia solani [1]; 5.0 kg/ha soil drench)	disease control rating, CURS (Rhizoctonia solani [1]; 10.0 kg/ha soil drench)	disease control rating, WLR [2]	disease control rating, CUPA (Pythium aphanidermantum; 2.5 kg/ha soil drench)	disease control rating, CUPA (Pythium aphanidermantum; 5.0 kg/ha soil drench)	disease control rating, CUPA (Pythium aphanidermantum; 10.0 kg/ha soil drench)	disease control rating, WPM [3]	disease control rating, GDM (Plasmopara viticola)	growth inhibition rating, FUSOXC [4]	disease control rating, RB (Pyricularia oryzae)	disease control rating, TEB (Alternaria solani)	growth inhibition rating, PSDCHE [6]	growth inhibition rating, PYTHUL (Pythium ultimum)	disease control rating, SBC (Cercospora beticola; 200 ppm)	disease control rating, SBC (Cercospora beticola; 400 ppm)	disease control rating, PB (Botrytis cinerea)	disease control rating, AS (Venturia inaequalis)	growth inhibition rating, RHIZSO (Rhizoctonia solani [7])	disease control rating, RSB (Rhizoctonia solani [8])	also measured
CN([O-])C(=S)C(=O)C(C)(C)C.CN([O-])C(=S)C(=O)C(C)(C)C.CN([O-])C(=S)C(=O)C(C)(C)C.[Fe+3] [N,3,3-trimethyl-2-oxo-1-thiobutyrohydroxamic acid iron(+3) chelate]	4 (45-55)	6 (75-85)	9 (100)	6.5	0 (0)	1 (5-10)	2 (15-25)	5.5	8.5	1.3	0.0	9.0	2.5	8.0	8.2	6.8	6.0	9.0	4.5	3.3	disease control rating, CUFO ([5]; 2.5 kg/ha soil drench): 1 (5-10); disease control rating, CUFO ([5]; 5.0 kg/ha soil drench): 2 (15-25); disease control rating, CUFO ([5]; 10.0 kg/ha soil drench): 3 (30-40)
CN(O)C(=S)C(=O)C(C)(C)C.CN(O)C(=S)C(=O)C(C)(C)C.[Mn+2] [N,3,3-trimethyl-2-oxo-1-thiobutyrohydroxamic acid manganese(+2) chelate]	–	–	–	6.5	–	–	–	7.0	5.5	0.0	3.0	8.5	7.0	6.0	7.5	–	8.5	8.5	4.5	0.0	–
CN([O-])C(=S)C(=O)C(C)(C)C.CN([O-])C(=S)C(=O)C(C)(C)C.[Zn+2] [N,3,3-trimethyl-2-oxo-1-thiobutyrohydroxamic acid zinc(+2) chelate]	4 (45-55)	6 (75-85)	9 (100)	7.5	0 (0)	2 (15-25)	4 (45-55)	3.0	9.0	4.5	8.0	8.5	4.0	8.5	8.4	7.5	8.5	9.0	4.5	6.0	disease control rating, CUFO ([5]; 2.5 kg/ha soil drench): 2 (15-25); disease control rating, CUFO ([5]; 5.0 kg/ha soil drench): 1 (5-10); disease control rating, CUFO ([5]; 10.0 kg/ha soil drench): 4 (45-55)
CN(O)C(=S)C(=O)C(C)(C)C [N,3,3-trimethyl-2-oxo-1-thiobutyrohydroxamic acid]	2 (15-25)	5 (60-70)	7 (90)	1.7	2 (15-25)	2 (15-25)	3 (30-40)	6.3	4.3	0.0	2.7	2.7	1.0	6.0	7.0	3.5	3.0	5.0	6.0	0.3	Control of Banana Black Sigatoka (rating) (Mycosphaerella fijiensis): 3.7; disease control rating, CUFO ([5]; 2.5 kg/ha soil drench): 1 (5-10); disease control rating, CUFO ([5]; 5.0 kg/ha soil drench): 0 (0); disease control rating, CUFO ([5]; 10.0 kg/ha soil drench): 1 (5-10)
COC(=O)ON(C)C(=S)C(=O)C(C)(C)C [methylcarbonate ester of N,3,3-trimethyl-2-oxo-1thiobutyrohydroxamate]	–	–	–	–	–	–	–	0.0	0.0	0.0	0.0	2.0	0.0	5.0	0.0	–	0.0	0.0	0.0	–	–
CN(OC(=O)c1ccc(Cl)cc1)C(=S)C(=O)C(C)(C)C [p-Chlorobenzoate ester of N,3,3-trimethyl-2-oxo-1-thiobutyrohydroxamate]	–	–	–	–	–	–	–	3.0	0.0	0.0	6.0	6.0	0.0	0.0	4.0	–	8.0	8.0	0.0	–	–
N-methyl-alpha-thio-1-adamantaneglyoxylohydroxamic acid zinc(+2) chelate	–	–	–	–	–	–	–	0.0	0.0	0.0	0.0	0.0	0.0	1.5	0.5	3.0	0.0	0.0	0.0	–	–
